These results are taken from paper PMC4352439, “Safety Evaluation of Chinese Medicine Injections with a Cell Imaging-Based Multiparametric Assay Revealed a Critical Involvement of Mitochondrial Function in Hepatotoxicity” (Evidence-based Complementary and Alternative Medicine : eCAM, 2015).

Details of experiment [1]: method as in earlier work. The note with it: Operetta assay protocol; read-out: median concentration (IC50); cited from earlier work.
The test system of a further experiment is HepG2 cells. Kind of experiment: multiparametric cell-based HCA hepatotoxicity assay. Further details: species or system human. The note with it: for IC50: HepG2, 24-hour incubation.

Molecules are shown by their SMILES. Several values for one entry are separate records, joined by “and”; a condition that tells them apart may be missing. Equal values may be shown once. Read-outs that look alike come from different tables or passages of the source.

As to `N#CC(C#N)=NNc1ccc(OC(F)(F)F)cc1` [FCCP, P-fluoromethoxyphenylhydrazone], the IC50 in experiment [1] was 5.2 µM; in the experiment on HepG2 cells (read-out: IC50 of cell number (CN)), 5.18 µM; with HepG2 cells (read-out: IC50 of mitochondrial mass (MS)), 7.02 µM; with HepG2 cells (read-out: IC50 of mitochondrial membrane potential (MMP)), 0.77 µM and 0.768 µM; with HepG2 cells (read-out: IC50 of nuclear area (NA)), 0.642 µM; in the experiment with HepG2 cells (read-out: IC50 of plasma membrane permeability (PMP)), 25.7 µM. In addition, in the experiment with HepG2 cells (3 μM), the “cell nucleuses (Hoechst 33342) in representative images” value is “shrunk”. Besides, in the experiment with HepG2 cells (3 μM), the “mitochondrial mass (MS), intensity of Mitotracker Deep Red FM in representative images” value is recorded as “increase”. For the same compound, the “increase of plasma membrane permeability (PMP)” value in the experiment on HepG2 cells (30 μM) is given as 17.5 fold.
For `CC(=O)Nc1ccc(O)cc1` [acetaminophen], the IC50 in experiment [1] is 1300 µM; in the experiment on HepG2 cells (listed as AAP, read-out: IC50 of cell number (CN)) it was 1840 µM; in the experiment with HepG2 cells (listed as AAP, read-out: IC50 of mitochondrial mass (MS)), 9780 µM; in the experiment on HepG2 cells (listed as AAP, read-out: IC50 of plasma membrane permeability (PMP)), 7.7 µM; in the experiment with HepG2 cells (Homo sapiens, HepG2, 24 h, read-out: IC50 of cell number (CN)), 1840 µM; in the experiment with HepG2 cells (Homo sapiens, HepG2, 24 h, read-out: IC50 of mitochondrial mass (MS)) it was 9780 µM. In addition, the IC50 in the experiment on HepG2 cells (Homo sapiens, HepG2, 24 h, read-out: IC50 of plasma membrane permeability (PMP)) was found to be 10 µM. The “increase of plasma membrane permeability (PMP)” value with HepG2 cells (100 μM) was determined as 61.4 fold. The “increase of nuclear area (NA)” value in the experiment on HepG2 cells (3 mM) is listed as 25.7%.
